This is an account of results in patent US20090270306A1, “Glass Storage” (priority 2005, published 2009).

Where two headings read alike, the source gives them in different places.

For series [1] the following is noted: initial pKa, cited from earlier work.
The nature of series [2]: pH behaviour on addition of sodium hydroxide (FIG. 1). It counts as physicochemical. The note with it: 0.2 g in 200 ml water, 0.1M sodium hydroxide added; during almost the entire addition.
The conditions of series [3]: 1% solution in water.
Where [4] appears, read: other suitable buffer compounds (Table 3).
The mark [5] stands for this setting: buffers tested for stain inhibitor performance (Table 1).

`O=S(=O)(O)CCNC1CCCCC1` [CHES, 2-(cyclohexylamino) ethanesulphonic acid]: in series [1] (setting [4]), the pKa is 9.5.

Take `O=S(=O)(O)CC(O)CN1CCN(CC(O)CS(=O)(=O)O)CC1` (stereo not drawn) [POPSO, piperazine-N-N′-bis (2-hydroxypropanesulphonic acid)]: the pKa in series [1] (setting [4]) is 7.8. Consider `O=S(=O)(O)CCCNC(CO)(CO)CO` [TAPS, N-[tris(hydroxymethyl)methyl]-3-aminopropanesulphonic acid], for which, in series [1] (setting [5]), the pKa is reported as 8.4.

As for `O=C(O)CNC(CO)(CO)CO` [Tricine, N-[tris (hydroxymethyl)methy] glycine], the pKa in series [1] (setting [5]) is reported as 8.2.

`O=C(O)CCCCC(=O)O` [adipic acid]: the “pH during addition of alkali” value in series [2] is below 5. In series [3], this molecule had a pH of solution of 2.8.
